Results as given in patent US20250263383A1, “NOVEL INHIBITORS OF GUANOSINE MONOPHOSPHATE SYNTHETASE AS THERAPEUTIC AGENTS” (University of Southern California, priority 2018, published 2025).

Assays:
[1] = tested on: BT-549 cells; assay: Sulforhodamin B viability assay; format: cell-based; settings: BT-549, Breast Cancer; negative values represent cell mortality percentage
[2] = tested on: HT29 cells; assay: Sulforhodamin B viability assay; format: cell-based; settings: HT29, Colon Cancer; negative values represent cell mortality percentage
[3] = tested on: UO-31 cells; assay: Sulforhodamin B viability assay; format: cell-based; settings: UO-31, Renal Cancer; negative values represent cell mortality percentage
[4] = tested on: NCI-H23 cells; assay: Sulforhodamin B viability assay; format: cell-based; settings: NCI-H23, Non-Small Cell Lung Cancer; negative values represent cell mortality percentage
[5] = tested on: eight distinct cancer cell lines; assay: Sulforhodamin B viability assay, all cell lines; format: cell-based; settings: across all the eight cell lines tested
[6] = tested on: OVCAR-5 cells; assay: Sulforhodamin B viability assay; format: cell-based; settings: OVCAR-5, Ovarian Cancer; negative values represent cell mortality percentage
[7] = tested on: SK-MEL-5 cells; assay: Sulforhodamin B viability assay; format: cell-based; settings: SK-MEL-5, Melanoma; negative values represent cell mortality percentage
[8] = tested on: SF-539 cells; assay: Sulforhodamin B viability assay; format: cell-based; settings: SF-539, CNS Cancer; negative values represent cell mortality percentage
[9] = tested on: HL-60(TB) cells; assay: Sulforhodamin B viability assay; format: cell-based; settings: Leukemia, negative values represent cell mortality percentage
[10] = target: recombinant human GMPS (Homo sapiens (Human), UniProt P49915); assay: enzymatic assay against recombinant GMPS, UV absorbance at 290 nm; settings: for IC50 against GMPS, in words: recombinant GMPS; for IC50: recombinant human GMPS
Sequence of recombinant human GMPS (P49915 whole entry): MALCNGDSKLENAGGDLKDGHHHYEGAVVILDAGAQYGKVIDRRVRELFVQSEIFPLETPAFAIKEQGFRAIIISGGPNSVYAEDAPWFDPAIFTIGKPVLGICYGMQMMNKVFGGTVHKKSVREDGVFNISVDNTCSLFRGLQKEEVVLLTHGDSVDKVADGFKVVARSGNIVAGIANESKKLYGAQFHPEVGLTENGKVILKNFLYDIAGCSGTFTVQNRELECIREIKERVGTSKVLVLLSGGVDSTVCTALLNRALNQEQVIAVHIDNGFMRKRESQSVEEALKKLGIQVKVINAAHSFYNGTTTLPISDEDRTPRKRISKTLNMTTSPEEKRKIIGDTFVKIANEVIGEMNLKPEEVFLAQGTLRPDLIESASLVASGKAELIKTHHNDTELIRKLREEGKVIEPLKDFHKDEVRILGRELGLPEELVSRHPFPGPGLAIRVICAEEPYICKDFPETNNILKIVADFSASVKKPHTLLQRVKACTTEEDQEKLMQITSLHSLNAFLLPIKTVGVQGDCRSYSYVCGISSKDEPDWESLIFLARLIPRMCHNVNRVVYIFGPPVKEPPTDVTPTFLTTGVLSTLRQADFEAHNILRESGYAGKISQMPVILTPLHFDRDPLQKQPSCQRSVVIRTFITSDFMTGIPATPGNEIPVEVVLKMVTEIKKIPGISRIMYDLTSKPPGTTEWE
Method: The potency of the five compounds was tested against recombinant GMPS in an enzymatic assay by monitoring UV absorbance at 290 nm and by determining an IC50.

SMILES | Cell survival [1] | Cell survival [2] | Cell survival [3] | Cell survival [4] | cell death [5] | Cell survival [6] | Cell survival [7] | Cell survival [8] | Cell survival [9] | IC50 against GMPS, in words [10] | IC50 [10]
C#CCOc1cccc(Nc2ncnc3ccc(NC(=O)CCl)cc23)c1 [Compound 1, 2-chloro-N-(4-((3-(prop-2-yn-1-yloxy)phenyl)amino)quinazolin-6-yl) acetamide] | −68.9% | −78.6% | −87.8% | −66.8% | > 50% | −70.1% | −92.8% | −86.6% | −58.4% |  | 
COc1cccc(Nc2ncnc3ccc(NC(C)=O)cc23)c1 [Compound 3, N-(4-((3-methoxyphenyl)amino)quinazolin-6-yl) acetamide] |  |  |  |  |  |  |  |  |  | less active | > 1000 nM
C#CCOc1cccc(C(=O)Nc2cccc(NC(=O)CCl)c2)c1 [Compound 5, N-(3-(2-chloroacetamido)phenyl)-3-(prop-2-yn-1-yloxy)benzamide] |  |  |  |  |  |  |  |  |  | less active | > 1000 nM
